We go through one sequence from ChEMBL document CHEMBL5226321, “Ivermectin: A Promising Therapeutic for Fighting Malaria. Current Status and Perspective” (J Med Chem, 2021).

Common to all, as to type: functional, organism-based
Experiment [1] concerns Anopheles sp. As to the kind of experiment: Insecticidal in Anopheles sp. assessed as mortality fed with compound treated human blood at 400 microg/kg in the presence of 6 mg/kg diethylcarbamazine citrate observed in 24 hrs relative to control. Particulars: dose 400.0 µg/kg.
In experiment [2] the test system is Anopheles sp. As to the kind of experiment: Insecticidal in Anopheles sp. assessed as mortality rate membrane-fed with blood of compound treated mouse at 600 microg/kg observed within 6 days relative to control. Particulars: dose 600.0 µg/kg, time 6.0 day.
In experiment [3] the test system is Anopheles sp. As to the kind of experiment: Insecticidal in Anopheles sp. infected with Plasmodium vivax assessed as lethality fed with blood isolated from compound treated human observed for 5 days. As to conditions: time 5.0 day.
The subject of experiment [4] is Anopheles arabiensis. Nature of the experiment: Insecticidal in Anopheles arabiensis assessed as mean survival fed with blood of compound treated human at 12 mg, administered as a single dose observed at 2 days post treatment. As to conditions: time 2.0 day.
In experiment [5] the test system is Anopheles sp. Nature of the experiment: Insecticidal in Anopheles sp. infected with Plasmodium falciparum gametocytes assessed as reduction in survival fed with compound treated bovine blood at 200 microg/kg feeding at 7 days after injection relative to control. Particulars: dose 200.0 µg/kg.
Experiment [6] relates to Anopheles sp. Nature of the experiment: Insecticidal in Anopheles sp. assessed as egg hatching rate fed with compound treated human blood administered as a single dose at 10 microg/ml fed at 4 hrs post treatment. As to conditions: dose 10.0 µg/ml.
The test system of experiment [7] is Anopheles arabiensis. As to the kind of experiment: Insecticidal in Anopheles arabiensis assessed as reduction in number of eggs fed with compound treated bovine blood at 200 microg/kg relative to control. Set-up: scale not given: the % may be the effect or the level left. As to conditions: dose 200.0 µg/kg.
The test system of experiment [8] is Anopheles arabiensis. Nature of the experiment: Insecticidal in Anopheles arabiensis assessed as mortality observed within 48 hrs after ingestion relative to control.
A further experiment relates to Anopheles gambiae. As to the kind of experiment: Insecticidal in Anopheles gambiae assessed as mortality fed with compound treated pig plasma at 20 ng/mL observed for 10 days relative to control. Particulars: time 10.0 day.
The subject of experiment [9] is Plasmodium berghei. As to the kind of experiment: In vivo antimalarial activity against blood stage Plasmodium berghei transfected with GFP infected in mouse assessed as supression of parasitemia at 0.5 mg/kg for 3 days relative to control. Particulars: time 3.0 day.
Experiment [10] concerns Plasmodium berghei. Nature of the experiment: In vivo antimalarial activity against blood stage Plasmodium berghei transfected with GFP infected in mouse assessed as increase in mouse survival days at 0.5 mg/kg for 3 days. Particulars: time 3.0 day.
Experiment [11] concerns Plasmodium berghei. As to the kind of experiment: In vivo antimalarial activity against liver stage Plasmodium berghei infected in mouse assessed as inhibition of liver infection at 10 mg/kg measured 44 to 46 hrs post-infection by bioluminescence assay relative to control. As to conditions: time 44-46 hrs.

Broadly, the mortality is the share of the test organisms that died. By inhibition is commonly meant the percentage by which the read-out fell short of the control. For IVERMECTIN, the mortality amounted to 70% with Anopheles sp. [1], 44% in the experiment with Anopheles sp. [2], 95% in the experiment with Anopheles arabiensis [8] and 50% in the experiment on Anopheles gambiae. Also, in the experiment with Anopheles sp. [3], the LC5 was found to be 18.3 ng/mL. Further, the Survival was found to be 2.1 days in the experiment with Anopheles arabiensis [4], 83% in the experiment on Anopheles sp. [5] and 23 days in the experiment with Plasmodium berghei [10]. Also, the Activity with Anopheles sp. [6] came to 74.8; in the experiment on Anopheles arabiensis [7] it was 82%; in the experiment on Plasmodium berghei [9] it was 40%. Moreover, in the experiment on Plasmodium berghei [11], the inhibition was determined as 80%.
